Measurements: patent publication EP4095134A1, “POLYCYCLIC COMPOUNDS FOR THE TREATMENT OF NEUROLOGICAL INDICATIONS” (UCL Business Ltd, priority 2021, dated 2022)

These compounds were tested against T1, P2Y1 receptor (Homo sapiens, UniProt P47900) (assay: P2Y1 IP1 accumulation HTRF assay, antagonism of agonist MRS2365 in stably transfected cells). Details: racemic; 5nM MRS2365; values rounded to nearest whole number; N >= 4.
T1 construct: expressed in transfected cells
T1 sequence (P47900 whole entry): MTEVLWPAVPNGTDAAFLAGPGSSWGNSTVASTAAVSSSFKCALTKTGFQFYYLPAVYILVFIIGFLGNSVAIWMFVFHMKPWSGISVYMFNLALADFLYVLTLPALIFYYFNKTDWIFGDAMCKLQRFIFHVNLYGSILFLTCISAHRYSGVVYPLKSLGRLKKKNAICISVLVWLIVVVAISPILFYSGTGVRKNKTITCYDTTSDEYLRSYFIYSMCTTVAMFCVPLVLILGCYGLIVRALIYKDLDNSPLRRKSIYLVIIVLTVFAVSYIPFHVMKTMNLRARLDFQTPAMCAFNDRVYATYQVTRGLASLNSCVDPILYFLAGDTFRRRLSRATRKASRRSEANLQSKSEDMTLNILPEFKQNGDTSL
Format: cell-based
Protocol: IC50 values were determined using a cell based assay in stably transfected cells overexpressing the P2Y1 receptor. The assay system is a […] (HTRF) assay measuring accumulation of the intracellular messenger inositol monophosphate (IP1), generated intracellularly following activation of P2Y1. Activity of test compounds was generated by measuring antagonism of the increase in IP1 generated by addition of a selective P2Y1 agonist, MRS2365.
P2Y1 overexpressing cells were maintained in T175 flasks. The day before the assay, these cells were split and 20µl cell suspension transferred to each well of white 384-well assay plates at a cell density of 0.5x10^6 cells/mL. Plates were pulse centrifuged, then incubated overnight at 37°C / 5% CO2 prior to assay.
On day of assay, medium was removed from cells and replaced with stimulation buffer. Compounds were prepared in 100% DMSO for addition to cells using the Tecan D300e digital dispenser; compounds were prepared in cassette heads and added directly to wells in the required concentration range, to give a 10-point concentration response curve from 10µM with semi-log dilutions and a final DMSO concentration of 0.1%. Positive control antagonist curves with standard compounds were included on each plate. Plates were incubated with antagonists for 1 hour prior to addition of 5nM of the agonist MRS2365, dispensed using a Bravo liquid handler. Following agonist addition, plates were incubated for 60 minutes prior to assay. Both incubations were carried out at 37°C / 5% CO2.
For the assay, IP1 accumulation was quantified using the IPOne kit according to manufacturer's instructions. In short, a standard curve was prepared for IP 1 quantification, and cells lysed using kit lysis buffer. Assay reagents were added to the lysates, and incubated for 1 hour at room temperature without spinning or shaking. Plates were analysed on a BMG Pherastar plate reader, and IP1 signal generated in cells interpolated from the standard curve.
For all reported results, N is greater than or equal to 4. An individual N refers to one assay run with a single weighing of compound. A minimum of two assay runs were performed for each of two independent weighings of compound. Results (racemic)
Compound O=C(Nc1ccc(OC2CC(F)(F)C2)cc1)Nc1cccnc1Oc1ccccc1C1(C(F)(F)F)CCO1 (racemic) [S36, 1-(4-(3,3-difluorocyclobutoxy)phenyl)-3-(2-(2-(2-(trifluoromethyl)oxetan-2-yl)phenoxy)pyridin-3-yl)urea] has an IC50 of 207 nM.
FC(F)c1nnc(Nc2cccnc2Oc2ccccc2C2(C(F)(F)F)CCO2)s1 (racemic) [S82] showed an IC50 of 4530 nM.
In the case of O=C(Nc1ccc(OC(F)(F)F)cc1F)Nc1cccnc1Oc1ccc(F)cc1C1(C(F)(F)F)CCO1 (racemic) [S21, 1-(2-(4-fluoro-2-(2-(trifluoromethyl)oxetan-2-yl)phenoxy)pyridin-3-yl)-3-(2-fluoro-4-(trifluoromethoxy)phenyl)urea], the IC50 is reported as 140 nM.
Work on O=C(Nc1ccc(OC(F)(F)F)cc1)Nc1cccnc1Oc1ccc(F)cc1C1(C(F)(F)F)CCO1 (racemic) [S26, 1-(2-(4-fluoro-2-(2-(trifluoromethyl)oxetan-2-yl)phenoxy)pyridin-3-yl)-3-(4-(trifluoromethoxy)phenyl)urea] yielded an IC50 of 152 nM.
Compound Cc1ccc(NC(=O)Nc2ccc(OC(F)(F)F)cc2)c(Oc2ccccc2C2(C(F)(F)F)CCO2)n1 (racemic) [S7, 1-(6-methyl-2-(2-(2-(trifluoromethyl)oxetan-2-yl)phenoxy)pyridin-3-yl)-3-(4-(trifluoromethoxy)phenyl)urea] has an IC50 of 55 nM.
Compound Cc1ccc(NC(=O)Nc2ccc(C(C)C)cc2)c(Oc2ccccc2C2(C(F)(F)F)CCO2)n1 (racemic) [S1] has an IC50 of 20 nM.
CC1(c2ccccc2Oc2ncccc2NC(=O)Nc2ccc(OC(F)(F)F)cc2)CCC1 (racemic) [S95] gave an IC50 of 36 nM.
Cc1ccc(NC(=O)Nc2ccc(Cl)cc2)c(Oc2ccccc2C2(C(F)(F)F)CCO2)n1 (racemic) [S18, 1-(4-chlorophenyl)-3-(6-methyl-2-(2-(2-(trifluoromethyl)oxetan-2-yl)phenoxy)pyridin-3-yl)urea] was tested, and the IC50 was 118 nM.
COc1ccc(F)c(NC(=O)Nc2cccnc2Oc2ccc(F)cc2C2(C(F)(F)F)CCO2)c1 (racemic) [S57, 1-(2-(4-fluoro-2-(2-(trifluoromethyl)oxetan-2-yl)phenoxy)pyridin-3-yl)-3-(2-fluoro-5-methoxyphenyl)urea] showed an IC50 of 589 nM.
Work on Cc1ccc(NC(=O)Nc2ccc(C#N)cc2)c(Oc2ccc(F)cc2C2(C(F)(F)F)CCO2)n1 (racemic) [S66, 1-(4-cyanophenyl)-3-(2-(4-fluoro-2-(2-(trifluoromethyl)oxetan-2-yl)phenoxy)-6-methylpyridin-3-yl)urea] yielded an IC50 of 1020 nM.
With Cc1ccc(NC(=O)Nc2ccc3c(c2)OC(F)(F)O3)c(Oc2ccc(F)cc2C2(C(F)(F)F)CCO2)n1 (racemic) [S41, 1-(2,2-difluorobenzo[d][1,3]dioxol-5-yl)-3-(2-(4-fluoro-2-(2-(trifluoromethyl)oxetan-2-yl)phenoxy)-6-methylpyridin-3-yl)urea] the IC50 was 287 nM.
Compound Fc1ccc(Oc2ncccc2Nc2nc3ccc(C(F)(F)F)cc3[nH]2)c(C2(C(F)(F)F)CCO2)c1 (racemic) [S97] has an IC50 of 1010 nM.
With O=C(Nc1ccc(CN2CC(F)(F)C2)cc1)Nc1cccnc1Oc1ccccc1C1(C(F)(F)F)CCO1 (racemic) [S62, 1-(4-((3,3-difluoroazetidin-1-yl)methyl)phenyl)-3-(2-(2-(2-(trifluoromethyl)oxetan-2-yl)phenoxy)pyridin-3-yl)urea] the IC50 was 807 nM.
O=C(Nc1ccc(Cl)cc1)Nc1ccc(Cl)nc1Oc1ccccc1C1(C(F)(F)F)CCO1 (racemic) [S24, 1-(6-chloro-2-(2-(2-(trifluoromethyl)oxetan-2-yl)phenoxy)pyridin-3-yl)-3-(4-chlorophenyl)urea] was tested, and the IC50 was 145 nM.
Work on Cc1c(Oc2ncccc2NC(=O)Nc2ccc(OC(F)(F)F)cc2)cccc1C1COC1 (racemic) [S91] yielded an IC50 of 1370 nM.
O=C(Nc1ccc(OC(F)(F)F)cc1)Nc1cccnc1Oc1ccccc1C1(C(F)(F)F)CCN1Cc1ccccc1 (racemic) [S8] showed an IC50 of 64 nM.
Cc1ncc(NC(=O)Nc2ccc(Cl)cc2F)c(Oc2ccccc2C2(C(F)(F)F)CCO2)n1 (racemic) [S58] showed an IC50 of 639 nM.

Same assay, conditions: single enantiomer; 5nM MRS2365; values rounded to nearest whole number
Work on O=C(Nc1cccnc1Oc1ccccc1[C@@]1(C(F)(F)F)CCO1)Nc1ccc(Cl)c(F)c1F [S108] yielded an IC50 of 125 nM.
